# Results as given in patent US20230382924A1, “MODULATORS OF CYSTIC FIBROSIS TRANSMEMBRANE CONDUCTANCE REGULATOR” (VERTEX PHARMACEUTICALS INCORPORATED, priority 2020, published 2023).
# Legend:
# [1] = molecular target: T1, CFTR (Homo sapiens, UniProt P13569); assay: Membrane Potential Dye, Enteroid Assay B; assay type: cell-based; conditions: Table 9; for EC50: read-out: Ent. B EC50
# Protocol: Base medium (ADF+++) consisted of Advanced DMEM/Ham's F12, 2 mM Glutamax, 10 mM HEPES, […] penicillin/streptomycin.
# Bath 1 Buffer consisted of 1 mM MgCl2, 160 mM NaCl, 4.5 mM KCl, 10 mM HEPES, 10 mM Glucose, 2 mM CaCl2).
# Chloride Free Buffer consisted of 1 mM Magnesium Gluconate, 2 mM Calcium Gluconate, 4.5 mM Potassium Gluconate, 160 mM Sodium Gluconate, 10 mM HEPES, 10 mM Glucose.
# Bath 1 Dye Solution consisted of Bath 1 Buffer, 0.04% Pluronic F127, 20 μM Methyl Oxonol, 30 μM CaCCinh-A01, 30 μM Chicago Sky Blue.
# Chloride Free Dye Solution consisted of Chloride Free Buffer, 0.04% Pluronic F127, 20 μM Methyl Oxonol, 30 μM CaCCinh-A01, 30 μM Chicago Sky Blue.
# 3. Enteroid Cell Harvesting and Seeding
# Cells were recovered in cell recovery solution, collected by centrifugation at 650 rpm for 5 min at 4° C., resuspended in TryPLE and incubated for 5 min at 37° C. Cells were then collected by centrifugation at 650 rpm for 5 min at 4° C. and resuspended in IEMM containing 10 μM ROCK inhibitor (RI).
# 5. Membrane Potential Dye, Enteroid Assay B
# Briefly, cells were washed 5 times in Bath 1 Buffer. Bath 1 Dye Solution was added and the cells were incubated for 25 min at room temperature. Following dye incubation, cells were washed 3 times in Chloride Free Dye Solution. Chloride transport was initiated by addition of Chloride Free Dye Stimulation Solution and the fluorescence signal was read for 15 min.
# [2] = molecular target: T1, CFTR; assay: Membrane Potential Dye, Enteroid Assay A; assay type: cell-based; conditions: for EC50: read-out: Ent. A EC50
# Method in brief: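 Signal is reported as % Activity relative to a triple CFTR modulator control (3 μM + 3 μM + 300 nM acute). Read-out: membrane potential fluorescence (20 μM methyl oxonol) monitored for 15 min after chloride-free stimulation. Dye loading took 25 min at room temperature in Bath 1 buffer containing CaCC blockers.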
# T1 sequence (P13569 with tags, fused parts or gaps DEL508-508): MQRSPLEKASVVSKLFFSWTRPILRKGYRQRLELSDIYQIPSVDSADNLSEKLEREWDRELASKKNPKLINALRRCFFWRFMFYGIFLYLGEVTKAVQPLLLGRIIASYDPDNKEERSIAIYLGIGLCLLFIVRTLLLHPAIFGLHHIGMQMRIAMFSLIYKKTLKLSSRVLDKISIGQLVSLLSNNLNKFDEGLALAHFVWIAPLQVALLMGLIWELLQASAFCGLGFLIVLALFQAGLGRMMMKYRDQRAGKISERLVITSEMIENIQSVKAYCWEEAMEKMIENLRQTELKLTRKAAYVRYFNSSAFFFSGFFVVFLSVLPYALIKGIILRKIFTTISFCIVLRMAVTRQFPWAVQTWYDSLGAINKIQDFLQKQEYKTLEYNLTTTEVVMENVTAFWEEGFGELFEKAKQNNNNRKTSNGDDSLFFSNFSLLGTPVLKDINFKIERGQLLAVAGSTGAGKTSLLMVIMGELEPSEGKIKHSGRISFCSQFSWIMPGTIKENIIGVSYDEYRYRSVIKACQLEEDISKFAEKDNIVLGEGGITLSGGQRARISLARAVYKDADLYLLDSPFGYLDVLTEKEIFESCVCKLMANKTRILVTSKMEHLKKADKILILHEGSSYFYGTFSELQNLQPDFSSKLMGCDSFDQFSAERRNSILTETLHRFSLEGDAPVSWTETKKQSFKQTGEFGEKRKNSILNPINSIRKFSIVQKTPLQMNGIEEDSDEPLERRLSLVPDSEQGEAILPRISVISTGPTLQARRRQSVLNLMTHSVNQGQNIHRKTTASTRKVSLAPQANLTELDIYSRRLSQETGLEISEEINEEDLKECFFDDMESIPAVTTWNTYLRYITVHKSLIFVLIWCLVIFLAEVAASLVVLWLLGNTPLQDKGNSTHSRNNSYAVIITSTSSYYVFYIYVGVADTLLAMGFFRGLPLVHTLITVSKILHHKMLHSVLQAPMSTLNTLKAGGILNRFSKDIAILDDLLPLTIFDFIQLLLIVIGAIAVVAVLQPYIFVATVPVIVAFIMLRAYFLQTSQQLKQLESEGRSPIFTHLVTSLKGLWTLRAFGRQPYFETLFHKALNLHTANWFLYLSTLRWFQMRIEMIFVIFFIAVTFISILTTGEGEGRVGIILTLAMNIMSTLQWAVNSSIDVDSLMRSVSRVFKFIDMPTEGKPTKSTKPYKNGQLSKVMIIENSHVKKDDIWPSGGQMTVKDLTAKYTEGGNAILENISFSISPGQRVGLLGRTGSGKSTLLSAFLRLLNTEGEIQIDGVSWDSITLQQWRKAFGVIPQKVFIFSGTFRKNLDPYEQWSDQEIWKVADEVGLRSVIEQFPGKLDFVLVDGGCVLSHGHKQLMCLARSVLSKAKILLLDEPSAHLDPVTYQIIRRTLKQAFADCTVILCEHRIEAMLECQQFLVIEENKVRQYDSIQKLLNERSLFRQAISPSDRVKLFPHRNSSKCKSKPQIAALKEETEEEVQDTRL
structure (smiles),measurement,setting,value
Cc1cccc(C)c1-c1cc2nc(n1)NS(=O)(=O)c1cccc(c1)C(=O)N[C@H](C)[C@H](C)O2 [Compound 484],Ent. B Max Activity,[1],++ (++ is 30-60%)
same,EC50,[1],3 to 30 µM
Cc1cccc(C)c1-c1cc2nc(n1)NS(=O)(=O)c1cccc(c1)C(=O)NC[C@H](c1ccc(CC[Si](C)(C)C)cc1)O2 (stereo in doubt) [Compound 124],EC50,[1],< 1 µM
"Cc1cccc(/C=C/C2CC2)c1-c1cc2nc(n1)NS(=O)(=O)c1cccc(c1)C(=O)N[C@H](CC(C)C)CO2 [Compound 53, (11R)-6-[2-[(E)-2-Cyclopropylvinyl]-6-methyl-phenyl]-11-isobutyl-2,2-dioxo-9-oxa-2λ^6-thia-3,5,12,19-tetrazatricyclo[12.3.1.14,8]nonadeca-1(18),4(19),5,7,14,16-hexaen-13-one]",Ent. B Max Activity,[1],+++ (+++ is >60%)
same,EC50,[1],< 1 µM
O=C1N[C@@H]2CCCCCCCc3ccccc3-c3cc(nc(n3)NS(=O)(=O)c3cccc1c3)OC2 [Compound 217],Ent. B Max Activity,[1],+++ (+++ is >60%)
same,EC50,[1],< 1 µM
"O=C1N[C@@H]2CCCCCCCCc3ccccc3-c3cc(nc(n3)NS(=O)(=O)c3cccc1c3)OC2 [Compound 37, (18R)-30-Oxa-26λ^6-thia-19,27,29,32-tetraazapentacyclo[16.11.2.13,28.121,25.04,9]tritriaconta-1,3(32),4(9),5,7,21(33),22,24,28-nonaene-20,26,26-trione]",Ent. B Max Activity,[1],+++ (+++ is >60%)
same,EC50,[1],< 1 µM
O=C1N[C@@H]2CCCCC/C=C/c3ccccc3-c3cc(nc(n3)NS(=O)(=O)c3cccc1c3)OC2 [Compound 218],Ent. B Max Activity,[1],+++ (+++ is >60%)
same,EC50,[1],< 1 µM
CC(C)C[C@@H]1COc2cc(C3(C)CC3)nc(n2)NS(=O)(=O)c2cccc(c2)C(=O)N1 [Compound 164],Ent. B Max Activity,[1],+ (+ is <30%)
Cc1cccc2c1-c1cc3nc(n1)NS(=O)(=O)c1cccc(c1)C(=O)N[C@H](CCCCCCCC2)CO3 [Compound 213],Ent. B Max Activity,[1],+++ (+++ is >60%)
same,EC50,[1],< 1 µM
Cc1cccc(C)c1-c1cc2nc(n1)NS(=O)(=O)c1cccc(c1)C(=O)NCc1cc(Cl)ccc1O2 [Compound 295],Ent. B Max Activity,[1],+++ (+++ is >60%)
same,EC50,[1],< 1 µM
Cc1cccc(C)c1-c1cc2nc(n1)NS(=O)(=O)c1cc(n(C)n1)C(=O)NCC(CC(C)C)(CC(C)C)CO2 [Compound 173],Ent. B Max Activity,[1],++ (++ is 30-60%)
same,EC50,[1],1 to 3 µM
Cc1cccc(C)c1-c1cc2nc(n1)NS(=O)(=O)c1cccc(c1)C(=O)NC[C@H](c1ccc(C[Si](C)(C)C)cc1)O2 (stereo in doubt) [Compound 126],EC50,[1],< 1 µM
C=CCCCCCC[C@@H]1COc2cc(-c3c(C)cccc3C=C)nc(n2)NS(=O)(=O)c2cccc(c2)C(=O)N1 [Compound 215],Ent. B Max Activity,[1],++ (++ is 30-60%)
same,EC50,[1],< 1 µM
Cc1cccc(C)c1-c1cc2nc(n1)NS(=O)(=O)c1cccc(c1)C(=O)NC[C@H](c1ccc(CC[Si](C)(C)C)cc1)O2 (stereo in doubt) [Compound 123],EC50,[1],< 1 µM
Cc1cccc(CCC(C)C)c1-c1cc2nc(n1)NS(=O)(=O)c1cccc(c1)C(=O)N[C@H](CC(C)C)CO2 [Compound 389],Ent. B Max Activity,[1],+++ (+++ is >60%)
same,EC50,[1],< 1 µM
Cc1cccc(C)c1-c1cc2nc(n1)NS(=O)(=O)c1cccc(c1)C(=O)NC[C@@H](CC(C)C)CO2 (stereo in doubt) [Compound 367],Ent. B Max Activity,[1],+++ (+++ is >60%)
same,EC50,[1],< 1 µM
O=C1N[C@@H]2CCCC/C=C/c3ccccc3-c3cc(nc(n3)NS(=O)(=O)c3cccc1c3)OC2 [Compound 219],Ent. B Max Activity,[1],+++ (+++ is >60%)
same,EC50,[1],< 1 µM
"Cc1cccc(C)c1-c1cc2nc(n1)NS(=O)(=O)c1cccc(c1)C(=O)NCC(c1ccc(P(C)(C)=O)cc1)O2 (centres unmarked) [Compound 21, 6-(2,6-Dimethylphenyl)-10-(4-dimethylphosphorylphenyl)-2,2-dioxo-9-oxa-2λ^6-thia-3,5,12,19-tetrazatricyclo[12.3.1.14,8]nonadeca-1(18),4(19),5,7,14,16-hexaen-13-one]",Ent. A Max Activity,[2]; Table 8,+ (+ is <30%)
"CC(C)C[C@@H]1COc2cc(-c3ccccc3-c3ccccc3)nc(n2)NS(=O)(=O)c2cccc(c2)C(=O)N1 [Compound 101, (11R)-11-Isobutyl-2,2-dioxo-6-(2-phenylphenyl)-9-oxa-2λ^6-thia-3,5,12,19-tetrazatricyclo[12.3.1.14,8]nonadeca-1(18),4,6,8(19),14,16-hexaen-13-one]",Ent. A Max Activity,[2]; Table 9,+++ (+++ is >60%)
same,EC50,[2]; Table 9,< 1 µM
CCC(C)(C)C(=O)N1CC[C@H]2NC(=O)c3cccc(c3)S(=O)(=O)Nc3nc(cc(-c4c(C)cccc4C)n3)OC2C1 (stereo in doubt) [Compound 371],Ent. A Max Activity,[2]; Table 9,++ (++ is 30-60%)
same,EC50,[2]; Table 9,3 to 30 µM
Cc1cccc(C)c1-c1cc2nc(n1)NS(=O)(=O)c1cccc(c1)CNC1C[C@@H](CN(C(=O)OCc3ccccc3)C1)O2 (stereo in doubt) [Compound 192],Ent. A Max Activity,[2]; Enteroid Assay A,++ (++ is 30-60%)
same,EC50,[2]; Enteroid Assay A,1 to 3 µM
Cc1cccc(C)c1-c1cc2nc(n1)NS(=O)(=O)c1cccc(c1)C(=O)NCC(CN1CCCCC1)O2 (centres unmarked) [Compound 410],EC50,[2]; Table 8,3 to 30 µM
"Cc1cccc(C)c1-c1cc2nc(n1)NS(=O)(=O)c1cccc(c1)C(=O)N[C@@H]1CN(CCC3(C(F)(F)F)CC3)CC[C@H]1O2 [Compound 58, (3R,8R)-20-(2,6-Dimethylphenyl)-6-{2-[1-(trifluoromethyl)cyclopropyl]ethyl}-2-oxa-16λ^6-thia-6,9,17,19,22-pentaazatetracyclo[16.3.1.111,15.03,8]tricosa-1(21),11,13,15(23),18(22),19-hexaene-10,16,16-trione]",Ent. A Max Activity,[2]; Table 9,+++ (+++ is >60%)
same,EC50,[2]; Table 9,< 1 µM
Cc1cccc(C)c1-c1cc2nc(n1)NS(=O)(=O)c1cccc(c1)C(=O)NC[C@@H](CN1CCCCC1)O2 (stereo in doubt) [Compound 409],Ent. A Max Activity,[2]; Table 8,+ (+ is <30%)
"CC(C)C[C@@H]1COc2cc(-c3ccccc3OC(F)(F)F)nc(n2)NS(=O)(=O)c2cccc(c2)C(=O)N1 [Compound 103, (11R)-11-(2-Methylpropyl)-6-[2-(trifluoromethoxy)phenyl]-9-oxa-2λ^6-thia-3,5,12,19-tetraazatricyclo[12.3.1.14,8]nonadeca-1(17),4(19),5,7,14(18),15-hexaene-2,2,13-trione]",Ent. A Max Activity,[2]; Enteroid Assay A,+++ (+++ is >600%)
same,EC50,[2]; Enteroid Assay A,< 1 µM
"Cc1cccc(C)c1-c1cc2nc(n1)NS(=O)(=O)c1cccc(c1)C(=O)NCC(c1ccc(C3CCC3)cc1)O2 (single isomer, unassigned) [Compound 13, 10-(4-Cyclobutylphenyl)-6-(2,6-dimethylphenyl)-2,2-dioxo-9-oxa-2λ^6-thia-3,5,12,19-tetrazatricyclo[12.3.1.14,8]nonadeca-1(18),4(19),5,7,14,16-hexaen-13-one]",Ent. A Max Activity,[2]; Table 9,+ (+ is <30%)
same,EC50,[2]; Table 9,< 1 µM
Cc1cc(C(C)(C)C)ccc1[C@H]1CNC(=O)c2cccc(c2)S(=O)(=O)Nc2nc(cc(-c3c(C)cccc3C)n2)O1 (stereo in doubt) [Compound 156],Ent. A Max Activity,[2]; Table 8,+ (+ is <30%)
Cc1cccc(C)c1-c1cc2nc(n1)NS(=O)(=O)c1cccc(c1)C(=O)N[C@H](CC1CCCCC1)[C@@H](C1CC1)O2 [Compound 131],Ent. A Max Activity,[2]; Table 9,+++ (+++ is >60%)
same,EC50,[2]; Table 9,< 1 µM
Cc1cccc(C)c1-c1cc2nc(n1)NS(=O)(=O)c1cccc(c1)C(=O)NC1CC(CN(CCC(C)(C)C3CC3)C1)O2 (centres unmarked) [Compound 195],EC50,[2]; Enteroid Assay A,< 1 µM
Cc1cccc(C)c1-c1cc2nc(n1)NS(=O)(=O)c1cccc(c1)C(=O)NC[C@@H](c1ccccn1)O2 [Compound 232],Ent. A Max Activity,[2]; Table 8,+ (+ is <30%)
CCC(C)(C)C(=O)N1CC[C@H]2Oc3cc(-c4c(C)cccc4C)nc(n3)NS(=O)(=O)c3cccc(c3)C(=O)N[C@@H]2C1 [Compound 370],Ent. A Max Activity,[2]; Table 9,+++ (+++ is >60%)
same,EC50,[2]; Table 9,1 to 3 µM
Cc1cc(C(C)(C)C)ccc1C1CNC(=O)c2cccc(c2)S(=O)(=O)Nc2nc(cc(-c3c(C)cccc3C)n2)O1 (centres unmarked) [Compound 157],Ent. A Max Activity,[2]; Table 8,+++ (+++ is >60%)
same,EC50,[2]; Table 8,< 1 µM
Cc1cc(C2CNC(=O)c3cccc(c3)S(=O)(=O)Nc3nc(cc(-c4c(C)cccc4C)n3)O2)cc2c1OC(C)(C)C2 (centres unmarked) [Compound 119],Ent. A Max Activity,[2]; Table 8,+ (+ is <30%)
Cc1cccc(C)c1-c1cc2nc(n1)NS(=O)(=O)c1cccc(c1)C(=O)N[C@@H](CC1(C(F)(F)F)CC1)CO2 [Compound 288],Ent. A Max Activity,[2]; Table 8,+++ (+++ is >60%)
same,EC50,[2]; Table 8,< 1 µM
Cc1cccc(C)c1-c1cc2nc(n1)NS(=O)(=O)c1cccc(c1)C(=O)NC[C@H](Cc1ccccc1)O2 [Compound 346],Ent. A Max Activity,[2]; Enteroid Assay A,++ (++ is 30-60%)
same,EC50,[2]; Enteroid Assay A,< 1 µM
Cc1cccc(C)c1-c1cc2nc(n1)NS(=O)(=O)c1cccc(c1)C(=O)NCC1(CCN(CCOCc3ccccc3)CC1)CO2 [Compound 445],Ent. A Max Activity,[2]; Enteroid Assay A,++ (++ is 30-60%)
same,EC50,[2]; Enteroid Assay A,3 to 30 µM
